Where two headings read alike, the source gives them in different places. Numbered stars: 1 amine (or outer) side, 2 acyl side, 3 side chain; on linkers, the order of the positions; unused ones are H or OH. Bridge positions count the residues as written; N and C are the ends. Square brackets hold non-standard residues; d marks the D form. Peptide text beside a SMILES is read from it. * marks the point of attachment. X1 = CCCN1C[C@H](CSCC(=O)*)C[C@@H]2c3cccc4[nH]cc(c34)C[C@H]21; X2 = CN1C[C@H](CSCC(=O)*)C[C@@H]2c3cccc4[nH]cc(c34)C[C@H]21; Pipz(1-CH2CO,4-CH2CH2NH) = O=C(CN1CCN(CCN[*:1])CC1)[*:2]; Abu = CC[C@H](N)C(=O)O
Columns and labels:
hDA2 = assay: Dopamine-2 receptor radioligand binding assay; design: species or system human; conditions: [3H]spiperone
hsst3 = target: T1, hsst3 (Homo sapiens, UniProt P32745); assay: Somatostatin receptor radioligand binding assay, hsst3
T1 construct: expressed in transfected cells
In short: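 Membranes from CHO-K1 cells stably transfected with each human SSTR subtype, incubated 90 min at 25 °C with 0.05 nM [125I-Tyr11]SS-14 in 50 mM HEPES pH 7.4 with BSA, MgCl2 and protease inhibitors; filtration read-out. Nonspecific binding with 1000 nM SS-14; Ki values reported.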

hsst5 = target: T2, hsst5 (Homo sapiens, UniProt P35346); assay: Somatostatin receptor radioligand binding assay, hsst5; conditions: CHO-K1 membranes, [125I-Tyr11]SS-14
T2 construct: expressed in transfected cells
In short: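 Membranes from CHO-K1 cells stably expressing hsst5, incubated 90 min at 25 °C with 0.05 nM [125I-Tyr11]SS-14 in 50 mM HEPES pH 7.4 with BSA, MgCl2 and protease inhibitors. Bound ligand collected by filtration. Non-specific binding defined with 1000 nM SS-14.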

hsst1 = target: T3, hsst1 (Homo sapiens, UniProt P30872); assay: Somatostatin receptor radioligand binding assay, hsst1
T3 construct: expressed in transfected cells
Experimental: Specificity and selectivity of the somatostatin analogues used to synthesize the somatostatin-dopamine chimers were determined by a radioligand binding assay on CHO-K1 cells stably transfected with each of the SSTR subtypes, as follows. Somatostatin analogs are also described in U.S. Patent Application Publication No. 02210006790. The complete coding sequences of genomic fragments of the SSTR 1 (e.g., Genbank accession No. M81829), SSTR 2 (e.g., Genbank accession No. M81830), SSTR 3 (e.g., Genbank accession No. L07062), and SSTR 4 (e.g., Genbank accession No. AL049651) genes and a cDNA clone for SSTR 5 (e.g., Genbank accession No. D16827) was subcloned into the mammalian expression vector pCMV (Life Technologies, Milano, Italy). Other SSTR sequences are known to the skilled artisan. Clonal cell lines stably expressing SSTR's 1-5 were obtained by transfection into CHO-K1 cells (ATCC, Manassas, Va., USA) using the calcium phosphate co-precipitation method (Davis L, et al., 1994 In: Basic methods in Molecular Biology, 2nd edition, Appleton & Lange, Norwalk, Conn., USA: 611-646). The plasmid pRSV-neo (ATCC) was included as a selectable marker. Clonal cell lines were selected in RPMI 1640 media containing 0.5 mg/mL of G418 (Life Technologies, Milano, Italy), ring cloned, and expanded into culture.
Membranes for in vitro receptor binding assays were obtained by homogenizing the CHO-K1 cells expressing the SSTR's subtypes in ice-cold 50 mM Tris-HCl and centrifuging twice at 39,000 g (10 min), with an intermediate resuspension in fresh buffer. The final pellets were resuspended in 10 mM Tris-HCl for assay.
For the SSTR 1, 3, 4, and 5 assays, aliquots of the membrane preparations were incubated 90 minutes at 25° C. with 0.05 nM [^125I-Tyr11]SS-14 in 50 mM HEPES (pH 7.4) containing 10 mg/mL BSA, 5 mM MgCl2, 200 KIU/mL Trasylol, 0.02 mg/mL bacitracin, and 0.02 mg/mL phenylmethylsuphonyl fluoride. The final assay volume was 0.3 mL.
For the SSTR 2 assay, 0.05 nM [^125I]MK-678 was employed as the radioligand and the incubation time was 90 minutes at 25° C. The incubations were terminated by rapid filtration through GF/C glass microfiber filters (Whatman Co.) (pre-soaked in 0.3% polyethylenimine) using a BRANDEL filtration manifold. Each tube and filter was washed three times with 5 mL aliquots of ice-cold buffer. Specific binding was defined as the total radioligand bound minus that bound in the presence of 1000 nM SS-14 for SSTR 1, 3, 4, and 5, or 1000 nM MK-678 for SSTR2.
(§1) Using the discussed assays, the inhibition constants (Ki) for the five human somatostatin receptors (hSSTR1-hSSTR5) and the dopamine-2 receptor (hUTII and hDA2) were measured for the exemplified somatostatin-dopamine conjugates, as follows: […]

hsst2 = target: T4, hsst2 (Homo sapiens, UniProt P30874); assay: Somatostatin receptor radioligand binding assay, hsst2; conditions: CHO-K1 membranes, [125I]MK-678; read-out: hsst2 Ki
T4 construct: expressed in transfected cells
In short: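 Membranes from CHO-K1 cells stably expressing human SSTR2, in 10 mM Tris-HCl, incubated 90 min at 25 °C with 0.05 nM [125I]MK-678. Bound ligand collected by filtration on PEI-soaked GF/C filters; nonspecific binding defined with 1000 nM MK-678.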

hUTII = target: T5, hUTII (Homo sapiens, UniProt Q9UKP6); assay: hUTII inhibition constant; type: binding; conditions: read-out: hUTII Ki
T5 sequence (Q9UKP6 1-389): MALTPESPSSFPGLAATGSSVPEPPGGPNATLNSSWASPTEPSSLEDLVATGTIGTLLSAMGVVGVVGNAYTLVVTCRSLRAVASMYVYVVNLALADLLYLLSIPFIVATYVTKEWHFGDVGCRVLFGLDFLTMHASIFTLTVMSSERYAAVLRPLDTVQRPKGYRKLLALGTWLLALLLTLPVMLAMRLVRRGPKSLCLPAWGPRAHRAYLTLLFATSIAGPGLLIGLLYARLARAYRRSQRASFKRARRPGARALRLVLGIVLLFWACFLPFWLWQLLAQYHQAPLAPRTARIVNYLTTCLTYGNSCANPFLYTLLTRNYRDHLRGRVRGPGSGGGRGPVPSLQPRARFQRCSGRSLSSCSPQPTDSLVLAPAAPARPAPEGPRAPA
Experimental: as §1

[1] = CHO-K1 membranes, [125I-Tyr11]SS-14, read-out: hsst3 Ki
[2] = CHO-K1 membranes, [125I-Tyr11]SS-14, read-out: hsst1 Ki

T3 sequence (P30872 whole entry): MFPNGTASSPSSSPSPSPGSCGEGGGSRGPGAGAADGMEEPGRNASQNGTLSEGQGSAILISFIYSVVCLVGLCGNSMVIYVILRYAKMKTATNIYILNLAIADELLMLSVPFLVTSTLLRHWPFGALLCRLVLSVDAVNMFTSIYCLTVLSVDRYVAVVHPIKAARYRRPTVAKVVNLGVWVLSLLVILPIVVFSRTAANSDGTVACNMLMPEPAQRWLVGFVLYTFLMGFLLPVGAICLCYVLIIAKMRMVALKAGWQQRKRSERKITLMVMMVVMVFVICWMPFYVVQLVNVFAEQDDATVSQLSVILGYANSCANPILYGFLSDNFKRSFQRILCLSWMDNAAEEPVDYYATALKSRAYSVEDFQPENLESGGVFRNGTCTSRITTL
T1 sequence (P32745 whole entry): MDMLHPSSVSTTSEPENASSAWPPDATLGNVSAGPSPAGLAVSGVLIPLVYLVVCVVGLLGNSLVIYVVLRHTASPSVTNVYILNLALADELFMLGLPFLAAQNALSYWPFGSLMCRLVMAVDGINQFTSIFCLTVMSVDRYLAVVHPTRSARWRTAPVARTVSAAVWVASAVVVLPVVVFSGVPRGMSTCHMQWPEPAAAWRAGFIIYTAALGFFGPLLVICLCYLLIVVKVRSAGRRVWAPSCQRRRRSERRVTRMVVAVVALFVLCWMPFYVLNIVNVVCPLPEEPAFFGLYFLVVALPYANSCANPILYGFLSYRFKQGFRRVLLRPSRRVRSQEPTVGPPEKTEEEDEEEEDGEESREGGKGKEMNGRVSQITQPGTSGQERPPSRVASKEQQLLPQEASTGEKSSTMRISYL
T4 sequence (P30874 whole entry): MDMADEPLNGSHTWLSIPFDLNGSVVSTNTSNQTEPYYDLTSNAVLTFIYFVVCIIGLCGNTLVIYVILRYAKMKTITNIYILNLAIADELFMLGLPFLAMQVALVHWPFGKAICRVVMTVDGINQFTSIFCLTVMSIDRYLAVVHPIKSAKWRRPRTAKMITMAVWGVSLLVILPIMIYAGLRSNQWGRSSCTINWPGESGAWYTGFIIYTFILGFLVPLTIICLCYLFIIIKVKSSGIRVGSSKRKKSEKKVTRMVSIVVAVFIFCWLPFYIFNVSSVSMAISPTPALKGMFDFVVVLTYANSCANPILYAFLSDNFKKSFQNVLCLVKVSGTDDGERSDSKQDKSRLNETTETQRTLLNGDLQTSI
T2 sequence (P35346 whole entry): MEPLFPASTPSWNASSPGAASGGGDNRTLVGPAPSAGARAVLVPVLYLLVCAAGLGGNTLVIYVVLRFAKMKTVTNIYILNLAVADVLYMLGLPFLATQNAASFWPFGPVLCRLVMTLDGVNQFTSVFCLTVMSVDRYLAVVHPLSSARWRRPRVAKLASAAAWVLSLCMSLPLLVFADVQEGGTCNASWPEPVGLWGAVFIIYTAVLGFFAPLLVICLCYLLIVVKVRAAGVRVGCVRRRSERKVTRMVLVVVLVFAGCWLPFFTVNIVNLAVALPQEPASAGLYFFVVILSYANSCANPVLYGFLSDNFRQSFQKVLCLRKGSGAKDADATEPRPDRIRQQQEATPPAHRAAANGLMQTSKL

| Compound | Ki (hDA2) | Ki (hsst3) | Ki (hsst5; hsst5 Ki) | Ki (hsst1) | Ki (hsst2) | Ki (hUTII) | Ki (hsst3; [1]) | Ki (hsst5; read-out: hsst5 Ki) | Ki (hsst1; [2]) |
| --- | --- | --- | --- | --- | --- | --- | --- | --- | --- |
| CCCN1C[C@H](CSCC(=O)NCCCC[C@H](NC(=O)CSC[C@@H]2C[C@@H]3c4cccc5[nH]cc(c45)C[C@H]3N(CCC)C2)C(=O)N[C@H]2CSSC[C@@H](C(=O)N[C@H](C(N)=O)[C@@H](C)O)NC(=O)[C@H](CC)NC(=O)[C@H](CCCCN)NC(=O)[C@@H](Cc3c[nH]c4ccccc34)NC(=O)[C@H](Cc3ccc(O)cc3)NC2=O)C[C@@H]2c3cccc4[nH]cc(c34)C[C@H]21 [Example 9] | 8.3 nM | 536 nM | 99.5 nM | 273 nM | 0.54 nM | 635 nM |  |  |  |
| CCCN1C[C@H](CSCC(=O)NCCCC[C@H](NC(=O)CSC[C@@H]2C[C@@H]3c4cccc5[nH]cc(c45)C[C@H]3N(CCC)C2)C(=O)N[C@H](Cc2ccc(O)cc2)C(=O)N[C@H](Cc2ccc(O)cc2)C(=O)N[C@H]2CSSC[C@@H](C(=O)N[C@H](C(N)=O)[C@@H](C)O)NC(=O)[C@H](CC)NC(=O)[C@H](CCCCN)NC(=O)[C@@H](Cc3c[nH]c4ccccc34)NC(=O)[C@H](Cc3ccc(O)cc3)NC2=O)C[C@@H]2c3cccc4[nH]cc(c34)C[C@H]21 [Example 10] (X1-K(X1)[dY][dY]CY[dW]K[Abu]CT-NH2; disulfide 4-9) | 8.22 nM |  |  |  | 0.15 nM | 177 nM | 324 nM | 26.5 nM | 549 nM |
| CCCN1C[C@H](CSCC(=O)NCCCC[C@H](NC(C)=O)C(=O)N[C@H](Cc2ccc(O)cc2)C(=O)N[C@H](Cc2ccc(O)cc2)C(=O)N[C@H]2CSSC[C@@H](C(=O)N[C@H](C(N)=O)[C@@H](C)O)NC(=O)[C@H](CC)NC(=O)[C@H](CCCCN)NC(=O)[C@@H](Cc3c[nH]c4ccccc34)NC(=O)[C@H](Cc3ccc(O)cc3)NC2=O)C[C@@H]2c3cccc4[nH]cc(c34)C[C@H]21 [Example 11] (Ac-K(X1)[dY][dY]CY[dW]K[Abu]CT-NH2; disulfide 4-9) | 119 nM |  |  |  | 0.04 nM | 64.4 nM | 162 nM | 8.91 nM | 437 nM |
| CCCN1C[C@H](CSCC(=O)NCCN2CCN(CC(=O)N[C@H](Cc3ccccc3)C(=O)N[C@H]3CSSC[C@@H](C(=O)N[C@H](C(N)=O)[C@@H](C)O)NC(=O)[C@H](CC)NC(=O)[C@H](CCCCN)NC(=O)[C@@H](Cc4c[nH]c5ccccc45)NC(=O)[C@H](Cc4ccc(O)cc4)NC3=O)CC2)C[C@@H]2c3cccc4[nH]cc(c34)C[C@H]21 [Example 24] | 143 nM |  |  |  | 0.37 nM | 1510 nM | 154 nM | 24.2 nM | 1000 nM |
| CC[C@@H]1NC(=O)[C@H](CCCCN)NC(=O)[C@@H](Cc2c[nH]c3ccccc23)NC(=O)[C@H](Cc2ccc(O)cc2)NC(=O)[C@@H](NC(=O)[C@@H](Cc2ccc(O)cc2)NC(=O)[C@@H](Cc2ccc(O)cc2)NC(=O)[C@H](CCCCN)NC(=O)CN2CCN(CCNC(=O)CN3CCN(CCNC(=O)CSC[C@@H]4C[C@@H]5c6cccc7[nH]cc(c67)C[C@H]5N(C)C4)CC3)CC2)CSSC[C@@H](C(=O)N[C@H](C(N)=O)[C@@H](C)O)NC1=O [Example 28] (X2-[Pipz(1-CH2CO,4-CH2CH2NH)][Pipz(1-CH2CO,4-CH2CH2NH)]K[dY][dY]CY[dW]K[Abu]CT-NH2; disulfide 6-11) | 506 nM | 156 nM | 5.13 nM | 661 nM | 0.11 nM | 564 nM |  |  |  |
| CC[C@@H]1NC(=O)[C@H](CCCCN)NC(=O)[C@@H](Cc2c[nH]c3ccccc23)NC(=O)[C@H](Cc2ccc(O)cc2)NC(=O)[C@@H](NC(=O)[C@@H](Cc2ccccc2)NC(=O)CSC[C@@H]2C[C@@H]3c4cccc5[nH]cc(c45)C[C@H]3N(C)C2)CSSC[C@@H](C(=O)N[C@H](C(N)=O)[C@@H](C)O)NC1=O [Example 30] | 23.7 nM |  |  |  | 0.15 nM | 619 nM | 49.5 nM | 15.7 nM | 689 nM |
| CCCN1C[C@H](CSCC(=O)N[C@H](Cc2ccccc2)C(=O)N[C@H]2CSSC[C@@H](C(=O)N[C@H](C(N)=O)[C@@H](C)O)NC(=O)[C@H](CC)NC(=O)[C@H](CCCCN)NC(=O)[C@@H](Cc3c[nH]c4ccccc34)NC(=O)[C@H](Cc3ccc(O)cc3)NC2=O)C[C@@H]2c3cccc4[nH]cc(c34)C[C@H]21 [Example 31] | 25.5 nM |  |  |  | 0.1 nM | 498 nM | 84.6 nM | 22.6 nM | 691 nM |
| CC[C@@H]1NC(=O)[C@H](CCCCN)NC(=O)[C@@H](Cc2c[nH]c3ccccc23)NC(=O)[C@H](Cc2ccc(O)cc2)NC(=O)[C@@H](NC(=O)[C@@H](Cc2ccccc2)NC(=O)COCCOCCNC(=O)CSC[C@@H]2C[C@@H]3c4cccc5[nH]cc(c45)C[C@H]3N(C)C2)CSSC[C@@H](C(=O)N[C@H](C(N)=O)[C@@H](C)O)NC1=O [Example 40] | 255 nM |  |  |  | 0.32 nM | 223 nM | 70.3 nM | 17 nM | 1000 nM |
| CC[C@@H]1NC(=O)[C@H](CCCCN)NC(=O)[C@@H](Cc2c[nH]c3ccccc23)NC(=O)[C@H](Cc2ccc(O)cc2)NC(=O)[C@@H](NC(=O)[C@@H](Cc2ccccc2)NC(=O)COCCOCCNC(=O)COCCOCCNC(=O)CSC[C@@H]2C[C@@H]3c4cccc5[nH]cc(c45)C[C@H]3N(C)C2)CSSC[C@@H](C(=O)N[C@H](C(N)=O)[C@@H](C)O)NC1=O [Example 42] | 278 nM |  |  |  | 0.34 nM | 510 nM | 120 nM | 20.6 nM | 1000 nM |

— patent US20110065632A1, “PHARMACEUTICAL COMPOSITIONS OF SOMATOSTATIN-DOPAMINE CONJUGATES” (priority 2008, published 2011)
